Source: ChEMBL document CHEMBL4507269, “Data for DCP probe BAY-386” (2021)

What was measured:
[1] = molecular target: Citron Rho-interacting kinase (Homo sapiens) (UniProt O14578); conditions: Compound concentration 1000.0 nM
[2] = molecular target: T1, Muscarinic acetylcholine receptor M4 (Homo sapiens) (UniProt P08173); experiment: M4 (h) Eurofins-Cerep Cellular and Nuclear Receptor Functional Assays; conditions: Compound concentration 10.0 uM
T1 sequence (whole entry): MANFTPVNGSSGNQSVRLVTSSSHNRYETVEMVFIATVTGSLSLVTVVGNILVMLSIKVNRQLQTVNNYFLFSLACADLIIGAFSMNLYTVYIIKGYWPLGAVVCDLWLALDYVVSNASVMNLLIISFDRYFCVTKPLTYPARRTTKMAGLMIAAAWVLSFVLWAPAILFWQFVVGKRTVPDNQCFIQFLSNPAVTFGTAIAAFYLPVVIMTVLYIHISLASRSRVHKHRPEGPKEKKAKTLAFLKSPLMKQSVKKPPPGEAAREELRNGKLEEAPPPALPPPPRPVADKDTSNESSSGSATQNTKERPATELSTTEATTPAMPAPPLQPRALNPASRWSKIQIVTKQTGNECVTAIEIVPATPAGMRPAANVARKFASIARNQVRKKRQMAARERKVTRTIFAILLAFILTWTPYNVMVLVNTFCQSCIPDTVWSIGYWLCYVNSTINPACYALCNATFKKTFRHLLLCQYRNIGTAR

[3] = molecular target: Protein-tyrosine kinase 2-beta (Homo sapiens) (UniProt Q14289); conditions: Compound concentration 1000.0 nM
[4] = molecular target: Serine/threonine-protein kinase DCLK3 (Homo sapiens) (UniProt Q9C098); conditions: Compound concentration 1000.0 nM
[5] = molecular target: Mitogen-activated protein kinase 6 (Homo sapiens) (UniProt Q16659); conditions: Compound concentration 1000.0 nM
[6] = molecular target: MAP kinase-activated protein kinase 2 (Homo sapiens) (UniProt P49137); conditions: Compound concentration 1000.0 nM
[7] = molecular target: Phosphatidylinositol 4-phosphate 5-kinase type-1 gamma (Homo sapiens) (UniProt O60331); conditions: Compound concentration 1000.0 nM
[8] = molecular target: Cyclin-dependent kinase-like 1 (Homo sapiens) (UniProt Q00532); conditions: Compound concentration 1000.0 nM
[9] = molecular target: Ribosomal protein S6 kinase alpha-5 (Homo sapiens) (UniProt O75582); conditions: Compound concentration 1000.0 nM
[10] = molecular target: Mitogen-activated protein kinase kinase kinase 12 (Homo sapiens) (UniProt Q12852); conditions: Compound concentration 1000.0 nM
[11] = molecular target: Mitogen-activated protein kinase 7 (Homo sapiens) (UniProt Q13164); conditions: Compound concentration 1000.0 nM
[12] = molecular target: Rhodopsin kinase GRK7 (Homo sapiens) (UniProt Q8WTQ7); conditions: Compound concentration 1000.0 nM
[13] = molecular target: Serine/threonine-protein kinase SIK2 (Homo sapiens) (UniProt Q9H0K1); conditions: Compound concentration 1000.0 nM
[14] = molecular target: Serine/threonine-protein kinase TAO1 (Homo sapiens) (UniProt Q7L7X3); conditions: Compound concentration 1000.0 nM
[15] = molecular target: Tyrosine-protein kinase Fyn (Homo sapiens) (UniProt P06241); conditions: Compound concentration 1000.0 nM
[16] = test system: Proto-oncogene tyrosine-protein kinase receptor Ret (Homo sapiens), P07949 [M918T]; conditions: Compound concentration 1000.0 nM
[17] = test system: Receptor-type tyrosine-protein kinase FLT3 (Homo sapiens), P36888 [UNDEFINED MUTATION]; conditions: Compound concentration 1000.0 nM
[18] = molecular target: Proto-oncogene tyrosine-protein kinase Src (Homo sapiens) (UniProt P12931); conditions: Compound concentration 1000.0 nM
[19] = molecular target: Mitogen-activated protein kinase kinase kinase 4 (Homo sapiens) (UniProt Q9Y6R4); conditions: Compound concentration 1000.0 nM
[20] = test system: Receptor-type tyrosine-protein kinase FLT3 (Homo sapiens), P36888 [UNDEFINED MUTATION]; conditions: Compound concentration 1000.0 nM; remark: listed apart in the source
[21] = molecular target: Receptor tyrosine-protein kinase erbB-4 (Homo sapiens) (UniProt Q15303); conditions: Compound concentration 1000.0 nM
[22] = test system: Serine/threonine-protein kinase B-raf (Homo sapiens), P15056 [V600E]; conditions: Compound concentration 1000.0 nM
[23] = test system: Leucine-rich repeat serine/threonine-protein kinase 2 (Homo sapiens), Q5S007 [G2019S]; conditions: Compound concentration 1000.0 nM
[24] = molecular target: D(3) dopamine receptor (Homo sapiens) (UniProt P35462); conditions: Compound concentration 10.0 uM
[25] = molecular target: Dual specificity mitogen-activated protein kinase kinase 1 (Homo sapiens) (UniProt Q02750); conditions: Compound concentration 1000.0 nM
[26] = test system: Phosphatidylinositol 4,5-bisphosphate 3-kinase catalytic subunit alpha isoform (Homo sapiens), P42336 [E545K]; conditions: Compound concentration 1000.0 nM
[27] = molecular target: High affinity nerve growth factor receptor (Homo sapiens) (UniProt P04629); conditions: Compound concentration 1000.0 nM
[28] = molecular target: Glycogen synthase kinase-3 beta (Homo sapiens) (UniProt P49841); conditions: Compound concentration 1000.0 nM
[29] = molecular target: Mitogen-activated protein kinase kinase kinase 6 (Homo sapiens) (UniProt O95382); conditions: Compound concentration 1000.0 nM
[30] = molecular target: Calcium/calmodulin-dependent protein kinase type 1B (Homo sapiens) (UniProt Q6P2M8); conditions: Compound concentration 1000.0 nM
[31] = molecular target: Receptor-type tyrosine-protein kinase FLT3 (Homo sapiens) (UniProt P36888); conditions: Compound concentration 1000.0 nM
[32] = molecular target: Serine/threonine-protein kinase TBK1 (Homo sapiens) (UniProt Q9UHD2); conditions: Compound concentration 1000.0 nM
[33] = molecular target: Muscle, skeletal receptor tyrosine-protein kinase (Homo sapiens) (UniProt O15146); conditions: Compound concentration 1000.0 nM
[34] = molecular target: Dual specificity mitogen-activated protein kinase kinase 3 (Homo sapiens) (UniProt P46734); conditions: Compound concentration 1000.0 nM
[35] = molecular target: Phosphorylase b kinase gamma catalytic chain, skeletal muscle/heart isoform (Homo sapiens) (UniProt Q16816); conditions: Compound concentration 1000.0 nM
[36] = molecular target: Cyclin-dependent kinase 14 (Homo sapiens) (UniProt O94921); conditions: Compound concentration 1000.0 nM
[37] = molecular target: Maternal embryonic leucine zipper kinase (Homo sapiens) (UniProt Q14680); conditions: Compound concentration 1000.0 nM
[38] = molecular target: Casein kinase I isoform alpha (Homo sapiens) (UniProt P48729); conditions: Compound concentration 1000.0 nM

Sequence of Receptor-type tyrosine-protein kinase FLT3 (Homo sapiens), P36888 [UNDEFINED MUTATION] (P36888 whole entry, looked up, change not shown): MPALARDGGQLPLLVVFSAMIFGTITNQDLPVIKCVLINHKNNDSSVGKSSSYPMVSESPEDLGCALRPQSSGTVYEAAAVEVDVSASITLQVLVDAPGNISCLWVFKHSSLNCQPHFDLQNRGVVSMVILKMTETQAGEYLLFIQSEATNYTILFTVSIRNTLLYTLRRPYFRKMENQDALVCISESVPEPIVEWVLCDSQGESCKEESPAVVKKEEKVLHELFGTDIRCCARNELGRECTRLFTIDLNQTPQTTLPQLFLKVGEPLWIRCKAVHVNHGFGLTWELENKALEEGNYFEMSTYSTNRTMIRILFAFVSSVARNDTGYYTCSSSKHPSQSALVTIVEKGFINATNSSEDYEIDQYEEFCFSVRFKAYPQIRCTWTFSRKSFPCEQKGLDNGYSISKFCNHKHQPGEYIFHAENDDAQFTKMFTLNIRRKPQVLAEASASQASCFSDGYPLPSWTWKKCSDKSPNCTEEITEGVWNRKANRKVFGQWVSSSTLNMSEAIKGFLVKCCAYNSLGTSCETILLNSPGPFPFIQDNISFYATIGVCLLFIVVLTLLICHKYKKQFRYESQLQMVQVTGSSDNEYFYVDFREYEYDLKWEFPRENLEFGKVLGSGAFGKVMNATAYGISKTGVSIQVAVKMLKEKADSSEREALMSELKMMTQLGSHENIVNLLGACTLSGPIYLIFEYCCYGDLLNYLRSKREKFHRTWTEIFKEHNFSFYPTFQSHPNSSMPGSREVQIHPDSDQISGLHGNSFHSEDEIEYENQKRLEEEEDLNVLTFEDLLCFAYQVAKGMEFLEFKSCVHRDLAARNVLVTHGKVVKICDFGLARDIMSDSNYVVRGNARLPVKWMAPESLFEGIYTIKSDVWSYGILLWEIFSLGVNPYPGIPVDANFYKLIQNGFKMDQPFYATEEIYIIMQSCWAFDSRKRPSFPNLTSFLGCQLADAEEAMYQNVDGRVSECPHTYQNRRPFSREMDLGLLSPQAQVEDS
Sequence of Tyrosine-protein kinase Fyn (Homo sapiens) (P06241 2-537 limits assumed): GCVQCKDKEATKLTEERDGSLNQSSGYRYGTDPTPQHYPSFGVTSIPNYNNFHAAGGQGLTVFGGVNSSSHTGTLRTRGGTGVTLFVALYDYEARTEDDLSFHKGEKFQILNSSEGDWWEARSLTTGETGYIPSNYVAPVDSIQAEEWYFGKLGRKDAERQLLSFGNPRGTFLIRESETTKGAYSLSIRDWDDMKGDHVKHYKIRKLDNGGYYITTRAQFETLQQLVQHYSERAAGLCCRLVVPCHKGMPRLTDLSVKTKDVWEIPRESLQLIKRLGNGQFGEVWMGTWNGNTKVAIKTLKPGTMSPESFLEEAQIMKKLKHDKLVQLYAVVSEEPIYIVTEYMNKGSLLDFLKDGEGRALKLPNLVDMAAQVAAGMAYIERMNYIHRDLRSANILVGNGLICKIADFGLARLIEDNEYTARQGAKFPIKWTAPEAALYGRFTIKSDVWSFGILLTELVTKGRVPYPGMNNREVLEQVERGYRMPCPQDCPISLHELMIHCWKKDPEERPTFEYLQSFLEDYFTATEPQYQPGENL
Sequence of Leucine-rich repeat serine/threonine-protein kinase 2 (Homo sapiens), Q5S007 [G2019S] (Q5S007 whole entry G2019S): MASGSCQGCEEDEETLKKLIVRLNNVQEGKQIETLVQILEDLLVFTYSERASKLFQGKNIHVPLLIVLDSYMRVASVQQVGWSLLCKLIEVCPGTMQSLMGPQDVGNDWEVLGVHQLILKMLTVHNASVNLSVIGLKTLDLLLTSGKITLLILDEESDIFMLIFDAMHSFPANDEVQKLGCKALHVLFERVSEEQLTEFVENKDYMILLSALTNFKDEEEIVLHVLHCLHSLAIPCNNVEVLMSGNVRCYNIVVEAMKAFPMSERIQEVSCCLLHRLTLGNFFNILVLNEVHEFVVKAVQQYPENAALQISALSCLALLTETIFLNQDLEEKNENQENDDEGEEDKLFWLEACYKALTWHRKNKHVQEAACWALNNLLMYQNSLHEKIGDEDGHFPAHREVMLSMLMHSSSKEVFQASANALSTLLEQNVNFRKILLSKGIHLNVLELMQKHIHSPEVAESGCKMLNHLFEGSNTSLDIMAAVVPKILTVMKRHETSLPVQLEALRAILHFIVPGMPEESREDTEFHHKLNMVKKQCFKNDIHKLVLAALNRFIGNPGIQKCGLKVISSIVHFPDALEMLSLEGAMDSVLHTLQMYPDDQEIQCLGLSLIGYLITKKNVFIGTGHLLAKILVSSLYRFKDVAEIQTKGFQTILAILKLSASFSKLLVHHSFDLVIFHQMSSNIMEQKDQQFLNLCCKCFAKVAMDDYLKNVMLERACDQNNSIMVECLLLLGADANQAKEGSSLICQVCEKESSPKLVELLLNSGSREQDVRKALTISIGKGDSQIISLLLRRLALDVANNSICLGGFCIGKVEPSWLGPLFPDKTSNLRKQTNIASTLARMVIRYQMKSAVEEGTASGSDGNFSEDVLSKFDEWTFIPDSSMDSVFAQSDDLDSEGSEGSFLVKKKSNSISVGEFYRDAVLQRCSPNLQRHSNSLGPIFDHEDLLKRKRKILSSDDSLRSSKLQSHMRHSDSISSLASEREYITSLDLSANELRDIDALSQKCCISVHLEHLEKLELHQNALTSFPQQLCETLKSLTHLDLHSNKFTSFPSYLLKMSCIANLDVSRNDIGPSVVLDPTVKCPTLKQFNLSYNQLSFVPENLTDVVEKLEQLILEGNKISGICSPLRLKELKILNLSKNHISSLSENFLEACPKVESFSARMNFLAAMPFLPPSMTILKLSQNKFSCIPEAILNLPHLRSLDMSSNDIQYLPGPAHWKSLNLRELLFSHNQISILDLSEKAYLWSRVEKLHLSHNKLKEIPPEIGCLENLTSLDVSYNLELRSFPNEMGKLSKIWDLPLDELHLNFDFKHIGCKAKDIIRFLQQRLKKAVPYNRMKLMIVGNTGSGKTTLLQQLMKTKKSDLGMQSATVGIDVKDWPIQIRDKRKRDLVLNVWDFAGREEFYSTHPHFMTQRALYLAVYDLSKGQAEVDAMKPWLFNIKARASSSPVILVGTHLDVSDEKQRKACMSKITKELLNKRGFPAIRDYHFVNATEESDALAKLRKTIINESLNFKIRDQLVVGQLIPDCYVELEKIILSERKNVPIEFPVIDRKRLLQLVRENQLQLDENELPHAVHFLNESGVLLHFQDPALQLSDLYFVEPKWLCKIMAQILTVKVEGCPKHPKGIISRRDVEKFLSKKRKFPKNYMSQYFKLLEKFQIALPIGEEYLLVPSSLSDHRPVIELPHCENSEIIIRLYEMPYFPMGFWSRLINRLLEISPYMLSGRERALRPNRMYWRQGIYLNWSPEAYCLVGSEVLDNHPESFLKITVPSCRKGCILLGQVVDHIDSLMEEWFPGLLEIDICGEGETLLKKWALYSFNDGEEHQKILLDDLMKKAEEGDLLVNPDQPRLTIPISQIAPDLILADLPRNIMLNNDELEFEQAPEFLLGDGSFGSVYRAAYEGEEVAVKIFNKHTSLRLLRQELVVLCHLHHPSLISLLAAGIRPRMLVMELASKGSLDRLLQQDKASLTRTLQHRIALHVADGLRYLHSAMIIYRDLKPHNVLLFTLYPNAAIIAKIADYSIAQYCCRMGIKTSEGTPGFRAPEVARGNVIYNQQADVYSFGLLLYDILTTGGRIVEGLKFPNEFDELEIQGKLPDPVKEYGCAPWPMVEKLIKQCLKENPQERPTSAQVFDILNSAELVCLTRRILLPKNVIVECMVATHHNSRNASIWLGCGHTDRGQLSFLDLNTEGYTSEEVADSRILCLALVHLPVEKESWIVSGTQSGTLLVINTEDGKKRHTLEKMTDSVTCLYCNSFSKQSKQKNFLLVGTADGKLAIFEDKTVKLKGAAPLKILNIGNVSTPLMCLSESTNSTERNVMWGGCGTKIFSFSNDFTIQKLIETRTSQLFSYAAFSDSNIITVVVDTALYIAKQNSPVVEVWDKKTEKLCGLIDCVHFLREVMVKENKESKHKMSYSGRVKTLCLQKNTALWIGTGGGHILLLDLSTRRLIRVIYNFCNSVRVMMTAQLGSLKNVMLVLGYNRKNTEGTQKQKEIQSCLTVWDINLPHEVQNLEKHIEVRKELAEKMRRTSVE
Sequence of Serine/threonine-protein kinase DCLK3 (Homo sapiens) (Q9C098 whole entry): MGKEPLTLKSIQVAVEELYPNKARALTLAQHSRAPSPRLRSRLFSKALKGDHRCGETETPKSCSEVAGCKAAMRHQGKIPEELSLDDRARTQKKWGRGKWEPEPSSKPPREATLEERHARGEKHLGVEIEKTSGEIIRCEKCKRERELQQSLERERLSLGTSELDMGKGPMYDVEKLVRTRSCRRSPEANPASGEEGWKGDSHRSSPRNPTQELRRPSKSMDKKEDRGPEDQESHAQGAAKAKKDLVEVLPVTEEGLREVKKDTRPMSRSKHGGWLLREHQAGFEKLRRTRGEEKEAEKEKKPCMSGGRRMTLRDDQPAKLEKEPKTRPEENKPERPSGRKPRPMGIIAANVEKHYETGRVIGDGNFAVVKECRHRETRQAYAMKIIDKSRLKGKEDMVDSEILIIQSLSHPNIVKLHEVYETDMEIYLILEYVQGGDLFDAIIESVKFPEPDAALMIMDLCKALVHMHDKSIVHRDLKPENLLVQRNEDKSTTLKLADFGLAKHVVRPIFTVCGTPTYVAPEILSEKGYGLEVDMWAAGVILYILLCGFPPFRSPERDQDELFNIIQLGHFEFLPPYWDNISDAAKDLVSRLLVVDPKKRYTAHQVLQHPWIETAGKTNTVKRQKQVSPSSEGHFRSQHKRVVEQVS
Sequence of Dual specificity mitogen-activated protein kinase kinase 1 (Homo sapiens) (Q02750 whole entry, canonical isoform): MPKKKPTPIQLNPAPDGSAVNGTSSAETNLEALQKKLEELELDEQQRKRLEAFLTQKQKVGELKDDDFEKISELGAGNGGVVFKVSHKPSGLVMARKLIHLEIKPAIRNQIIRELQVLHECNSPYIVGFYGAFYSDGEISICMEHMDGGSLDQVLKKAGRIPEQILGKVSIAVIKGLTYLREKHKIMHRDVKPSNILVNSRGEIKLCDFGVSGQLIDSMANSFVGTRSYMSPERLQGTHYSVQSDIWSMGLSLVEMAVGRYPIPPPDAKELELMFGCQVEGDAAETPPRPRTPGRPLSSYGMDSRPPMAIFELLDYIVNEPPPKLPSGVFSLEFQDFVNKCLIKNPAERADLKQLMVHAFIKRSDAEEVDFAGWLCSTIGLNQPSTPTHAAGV

Row | SMILES | residual activity [1] [%] | % Inhibition of Control Agonist Response (Mean n=2) [2] [%] | % of Control Agonist Response (Mean n=2) [2] [%] | residual activity [3] [%] | residual activity [4] [%] | residual activity [5] [%] | residual activity [6] [%] | residual activity [7] [%] | residual activity [8] [%] | residual activity [9] [%] | residual activity [10] [%] | residual activity [11] [%] | residual activity [12] [%] | residual activity [13] [%] | residual activity [14] [%] | residual activity [15] [%] | residual activity [16] [%] | residual activity [17] [%] | residual activity [18] [%] | residual activity [19] [%] | further results
1 | O=C(N1CCS(=O)(=O)CC1)N1C[C@H](c2ccc(OC(F)(F)F)cc2)C[C@H](c2nc(C3CC3)no2)C1 [BAY-386] | 100 | 5.8 | -15 | 99 | 100 | 100 | 100 | 100 | 100 | 100 | 0 | 100 | 100 | 100 | 100 | 80 | 92 | 100 | 97 | 83 | residual activity [20]: 100%; residual activity [21]: 95%; residual activity [22]: 100%; residual activity [23]: 100%; inhibition [24]: 5.09%; residual activity [25]: 91%; residual activity [26]: 90%; residual activity [27]: 87%; residual activity [28]: 100%; residual activity [29]: 91%; residual activity [30]: 100%; residual activity [31]: 81%; residual activity [32]: 94%; residual activity [33]: 100%; residual activity [34]: 100%; residual activity [35]: 94%; residual activity [36]: 100%; residual activity [37]: 100%; residual activity [38]: 100%
2 | Cc1noc([C@H]2C[C@@H](c3ccc(C(F)(F)F)cc3)CN(C(=O)N3CCS(=O)(=O)C3)C2)n1 [BAY-448] | 98 | 1.9 | 25.1 | 100 | 100 | 100 | 97 | 100 | 100 | 100 | 92 | 87 | 100 | 100 | 100 | 94 | 100 | 100 | 96 | 72 | residual activity [20]: 89%; residual activity [21]: 100%; residual activity [22]: 89%; residual activity [23]: 94%; inhibition [24]: -2.97%; residual activity [25]: 100%; residual activity [26]: 65%; residual activity [27]: 90%; residual activity [28]: 92%; residual activity [29]: 92%; residual activity [30]: 100%; residual activity [31]: 100%; residual activity [32]: 68%; residual activity [33]: 100%; residual activity [34]: 98%; residual activity [35]: 100%; residual activity [36]: 100%; residual activity [37]: 100%; residual activity [38]: 70%
